Measurements: patent publication EP4364726A1, “METHOD FOR TREATING A CANCER AND/OR CANCER METASTASIS” (Nano Targeting & Therapy Biopharma Inc., priority 2022, dated 2024)

Tests used:
[1] = system: chicken embryo chorioallantoic membrane (CAM) tumor model; assay: Chorioallantoic membrane (CAM) analysis for angiogenesis; format: in vivo; conditions: administered on day 12, observed days 14 and 16
Experimental: To evaluate the effect of MSNs on tumor angiogenesis, chicken embryo chorioallantoic membrane (CAM) tumor model was used. The fertilized eggs were incubated in the incubator for 10 days, then a small window was opened in the eggshell and the cancer cells were implanted on the CAM membrane near the aorta. MSN or Doxorubicin (DOX) was administered on day 12 when the tumor was formed and the angiogenesis near the tumor was observed on days 14 and 16.

[2] = system: luciferase-expressing HCT-116 cells; assay: Orthotopic colorectal cancer metastasis model (cells injected into cecum wall); format: in vivo, mice; conditions: orthotopic HCT-116-luc, 40 mg/kg twice per week, 8 administrations
Experimental: 2×10^6 luciferase-expressing HCT-116 cells were directly injected into the wall of the cecum with surgery to establish the orthotopic colorectal cancer metastasis model, this model spontaneously produces highly metastatic tumors in adjacent intestinal tissues, peritoneum, and distance metastasis (spleen, kidney, liver, and diaphragm). Tumor-bearing mice received IRI and IRI@NTT2_186k at dose levels of 40 mg/kg twice per week for a total of 8 administrations. The tumor growth and metastasis were observed by the IVIS system once a week and body weight was observed over the study period. To assess overall survival, animals were monitored up to the point of spontaneous death or approaching moribund status.

[3] = cited from earlier work

COc1cccc2c1C(=O)c1c(O)c3c(c(O)c1C2=O)C[C@@](O)(C(=O)CO)C[C@@H]3O[C@H]1C[C@H](N)[C@H](O)[C@H](C)O1 [DOX, Doxorubicin]
blood vessels near the tumor [1]: blood vessels exhibited disintegration and decreased density

CCc1c2c(nc3ccc(OC(=O)N4CCC(N5CCCCC5)CC4)cc13)-c1cc3c(c(=O)n1C2)COC(=O)[C@]3(O)CC [IRI, irinotecan]
tumor course once treatment was discontinued [2]: tumor relapse and tumor metastases were observed
tumor growth rate [2]: slower tumor growth rate compared to the control group
inhibition of primary tumor growth and metastases ([2]; IVIS): inefficient inhibition of tumor growth and metastases
pka [3]: about 10.9
